Values quoted from earlier work in patent US6366801B1, “Pharmaceutically enhanced low-energy radiosurgery” (Sirius Medicine, LLC, priority 1997, dated 2002).

Assays:
[1] = tested on: cells in vitro; conditions: iodine concentration of 50 mg/ml, cells in vitro (Dawson et al.)
[2] = tested on: brain tumors; conditions: low-energy x-rays and iodine, brain tumors in rabbits (Iwamoto et al.)
[3] = tested on: lymphocytes; conditions: iodine with low-energy photons, lymphocytes (Santos Mello et al.)

## II [iodine]
[1]
  effect on radiation damage to cells: radiation enhancement of cell damage
[2]
  dose enhancement: about 30%
[3]
  dose enhancement: up to 3
